The record followed here is patent US20230285598A1, “SULFOXONIUM YLIDE DERIVATIVES AS PROBES FOR CYSTEINE PROTEASE” (Takeda Pharmaceutical Company Limited, priority 2018, published 2023).

For assay [1], the target named is T1, cathepsin X (Mus musculus, UniProt Q9WUU7). In words: Probe labeling of RAW264.7 cell lysates, SDS-PAGE in-gel fluorescence. In kind it is biochemical. Also noted: protein lysates prepared from RAW264.7 cells; host or cells: RAW264.7. As for the experimental part:
ells were harvested by scraping, washed once with PBS, and resuspended in lysis buffer containing 50 mM citrate [pH 5.5], 0.5% CHAPS, 0.1% Triton X-100, and 4 mM DTT. Cells were incubated on ice for at least 10 minutes with intermittent vortexing followed by centrifugation ([…] at 4° C. or 5 minutes). Cleared supernatants were then transferred to a fresh tube and protein concentration was determined by BCA. Total protein (50 µg) was aliquoted into tubes in a final volume of 20 µl lysis buffer. Where indicated, JPM-OEt or MDV-590 were added from a 100x DMSO stock and incubated at 37° C. or 20 minutes prior to probe addition. The indicated concentration of probe was added from a 100x DMSO stock. Labeling was carried out at 37° C. or 20 minutes (unless otherwise indicated), and the reactions were quenched by the addition of 5x sample buffer (200 mM Tris-Cl [pH 6.8], 8% SDS, 0.04% bromophenol blue, 5% b-mercaptoethanol, and 40% glycerol). Samples were then boiled for five minutes and proteins were resolved on a 15% SDS-PAGE gel. The gels were scanned on a Typhoon 5 flatbed laser scanner at 633/670 nm excitation/emission to detect sCy5 fluorescence.
robe-labeled lysate from above (in sample buffer) was divided into input or pulldown (~50 µg total protein each). The input sample was stored at -20° C. The pulldown sample was diluted in 500 µl IP buffer (PBS [pH 7.4],[…], 1 mM EDTA). Goat anti-cathepsin X antibody (10 µl) was added along with 40 µl slurry of pre-washed Protein A/G agarose beads. Samples were rotated overnight at 4° C. Beads were then washed four times with IP buffer followed by a final wash in 0.9% NaCl. Beads were then resuspended in 2x sample buffer and boiled. The pulldown supernatants, alongside the input samples, were analysed by fluorescent SDS-PAGE as above.
In Example 3, the sulfoxonium ylide probe sCy5-Val-SY was incubated with protein lysates prepared from RAW264.7 cells, an immortalized mouse macrophage line that contains high levels of active cysteine cathepsins (Verdoes et al., 2013). Cells were lysed in citrate buffer (pH 5.5) to provide optimal conditions for cathepsin activation, and the probe was added • at 1 µM for 20 minutes • at various concentrations (0 µM, 0.01 µM, 0.05 µM, 0.1 µM, 0.5 µM or 1 µM) for 20 minutes; or • at 1 µM for varying times (0, 1, 2, 5, 10, 20, and 30 minutes).
Then the lysates were resolved by SDS-PAGE and the gel scanned for sCy5 fluorescence using a flatbed laser scanner.
The labeling profile of sCy5-Val-SY was compared to that of BMV109, the pan-cathepsin probe, by repeating the above experiment using BMV109 as the probe added at 1 µM for 20 minutes.
In Example 6, a small library of sulfoxonium ylide probes with varying amino acids in the P1 position as prepared in accordance with Example 1 was tested in RAW264.7 lysates, and compared to BMV109. Each probe was added with increasing probe concentrations of 0.01 µM, 0.05 µM, 0.1 µM, 0.5 µM, 1 µM and 5 µM for 20 minutes).

The target in assay [2] is T1, cathepsin X. In words: Probe labeling of kidney lysates, in-gel fluorescence. In kind it is biochemical. The following applies: 0.1-5 µM for 20 minutes. As to the method:
(§1) issues were harvested from healthy mice and snap frozen. At the time of analysis, lysis buffer was added at 10x volume:weight, and tissues were sonicated on ice. Cleared lysates were labeled with the indicated probe and analyzed as above.
In Example 7, sulfoxonium ylide probes as prepared in accordance with Example 1 were tested in kidney lysates and the results compared to BMV109. The sulfoxonium ylide probes (and BMV109) were each added with increasing probe concentrations of 0.1 µM, 0.5 µM, 1 µM and 5 µM for 20 minutes.

The target of assay [3] is T1, cathepsin X. In words: Probe labeling of living RAW264.7 cells, in-gel fluorescence. Also on record: protein lysates prepared from RAW264.7 cells; host or cells: RAW264.7. The following applies: Example 8; 0.1-5 µM for 2 hours. Type of assay: cell-based. As for the experimental part:
AW cells or MDA-MB-231 ^HM cells were plated in 12-well plates. Where indicated, MDV-590 or vehicle was added at 10 µM from a 10 mM DMSO stock for overnight incubation. When the cell density reached 80%, the indicated probes were added at the indicated concentrations from a 1000x DMSO stock and allowed to incubate for the indicated time. Media was then removed and replaced with PBS. The cells were then scraped and transferred to tubes, and lysis and SDS-PAGE analysis were carried out as above, except skipping the probe addition step. […]
In Example 8, sulfoxonium ylide probes as prepared in accordance with Example 1 were applied to live RAW264.7 cells for two hours, in order to examine the potency and permeability of the sulfoxonium ylide probe series in living cells, and the results compared to BMV109.
The sulfoxonium ylide probes (and BMV109) were each added with increasing probe concentrations of 0.1 µM, 0.5 µM, 1 µM and 5 µM for 2 hours. […]

Assay [4] addresses cathepsin X (Homo sapiens, UniProt Q9UBR2). In words: Probe labeling of live MDA-MB-231 HM cells, in-gel fluorescence. Also on record: cathepsin X in a human breast cancer line known to express very low levels of cathepsin S; host or cells: MDA-MB-231 HM. In kind it is cell-based. Conditions: 0.1-5 µM, overnight incubation. As to the method:
AW cells or MDA-MB-231 ^HM cells were plated in 12-well plates. Where indicated, MDV-590 or vehicle was added at 10 µM from a 10 mM DMSO stock for overnight incubation. When the cell density reached 80%, the indicated probes were added at the indicated concentrations from a 1000x DMSO stock and allowed to incubate for the indicated time. Media was then removed and replaced with PBS. The cells were then scraped and transferred to tubes, and lysis and SDS-PAGE analysis were carried out as above, except skipping the probe addition step.
In Example 9, the specificity of the sulfoxonium ylide probes for cathepsin X in a human breast cancer line known to express very low levels of cathepsin S, MDA-MB-231 ^HM (Chang et al., 2007) was tested, and the results compared to BMV109. The MDA-MB-231 ^HM cells also allowed to test whether the sulfoxonium ylide probes could bind to human cathepsin X (in addition to mouse cathepsin X shown previously).
The sulfoxonium ylide probes (and BMV109) were each added with increasing probe concentrations of 0.1 µM, 0.5 µM, 1 µM and 5 µM).

Assay [5] addresses T1, cathepsin X. In words: Inhibition in live RAW264.7 cells, residual activity by sCy5-Val-SY labeling. In kind it is cell-based. Also noted: protein lysates prepared from RAW264.7 cells; host or cells: RAW264.7. The following applies: 100 µM overnight pre-treatment, compared to controls. As for the experimental part: To test the ability of sulfoxonium ylide compounds to act as cathepsin inhibitors, an unlabeled, boc-protected version of Val-SY, i.e. tert-butyl (S)-(1-(dimethyl(oxo)-λ ^6-sulfanylidene)-4-methyl-2-oxopentan-3-yl)carbamate (SJM-724-24) was used. Live RAW264.7 cells were pre-treated with Boc-Val-SY (0, 10 or 100 µM) overnight. Residual cathepsin X activity was measured by incubating the live cells with sCy5-Val-SY for two hours. Cells were lysed and labeled proteins were detected by in-gel fluorescence.

The target of the next assay is T2, cathepsin S (Mus musculus, UniProt O70370).
T2 construct: Live RAW264.7 cells were pre-treated with Boc-Val-SY (0, 10 or 100 µM) overnight; host or cells: RAW264.7
The assay is described as above. In kind it is cell-based. Conditions: 100 µM overnight pre-treatment, compared to controls.

Assay [6] has as its target T1, cathepsin X. In words: In vivo probe labeling in mice (intravenous), tissues analyzed by fluorescent SDS-PAGE. Conditions: intravenous 50 nmol, two hours of circulation. As to the method:
For in vivo labeled tissues, mice were first injected intravenously via the tail vein with sCy5-Nle-SY, BMV109, or sCy5-Nle-AOMK (50 nmol in 100 µl 10% DMSO/PBS or vehicle control). Tissues were harvested and analyzed as above except without further probe addition.
In Example 10, the probe sCy5-Nle-SY, vehicle control/no probe (NP) or BMV109 were injected into mice intravenously. After two hours of circulation, tissues were harvested, lysed, and analyzed for probe labeling by fluorescent SDS-PAGE.
In Example 12, the AOMK probe sCy5-Nle-AOMK was tested in vivo and its labeling in tissues was analyzed. The probe was injected into mice intravenously. After two hours of circulation, tissues were harvested, lysed, and analyzed for probe labeling by fluorescent SDS-PAGE.

Assay [7] concerns the target T1, cathepsin X. In words: Probe labeling of mouse splenic lysates (wildtype or cathepsin X-deficient), in-gel fluorescence. In kind it is biochemical. Conditions: probe 1 µM for 20 minutes. As to the method: as §1
In Example 4, the ability of sCy5-Val-SY to label cathepsin X in mouse splenic lysates (from wildtype mice or cathepsin X-deficient mice) was tested (probe addition at 1 µM for 20 minutes).

Where [8] appears, read: Example 6, 0.01-5 µM for 20 minutes.

T1 sequence (Q9WUU7 64-306): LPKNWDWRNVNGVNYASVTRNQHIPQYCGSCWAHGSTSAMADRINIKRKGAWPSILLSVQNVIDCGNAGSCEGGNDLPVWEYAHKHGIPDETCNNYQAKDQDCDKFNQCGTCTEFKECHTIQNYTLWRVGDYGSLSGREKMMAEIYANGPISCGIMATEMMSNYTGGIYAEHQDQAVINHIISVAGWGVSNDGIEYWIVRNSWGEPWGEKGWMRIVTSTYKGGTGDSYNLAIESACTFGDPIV
Chain of cathepsin X (Homo sapiens, UniProt Q9UBR2) (Q9UBR2 62-303): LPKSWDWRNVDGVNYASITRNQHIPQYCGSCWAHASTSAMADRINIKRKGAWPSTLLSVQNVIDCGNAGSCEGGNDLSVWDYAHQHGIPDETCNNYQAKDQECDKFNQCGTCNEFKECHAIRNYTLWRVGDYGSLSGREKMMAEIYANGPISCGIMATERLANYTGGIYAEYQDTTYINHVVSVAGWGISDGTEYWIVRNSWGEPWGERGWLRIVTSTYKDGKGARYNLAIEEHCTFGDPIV

On to JPM-OEt [reference compound], for which, at cathepsin X [1] (RAW264.7 lysates pretreated with 10 µM inhibitor, then sCy5-Val-SY 1 µM 20 minutes), the “competition for sCy5-Val-SY labeling by inhibitor pretreatment” value is “labeling was prevented”.
As for `CC[N+]1=C(/C=C/C=C/C=C2/N(CCCCCC(=O)N[C@@H](Cc3ccccc3)C(=O)C=S(C)(C)=O)c3ccc(S(=O)(=O)O)cc3C2(C)C)C(C)(C)c2cc(S(=O)(=O)[O-])ccc21` [sCy5-Phe-SY], the “potency and specificity of labeling in kidney lysates” value (“potency and specificity of labeling” for short) at cathepsin X [2] is “broader reactivity”. Further, the “cathepsins labeled in live RAW264.7 cells” value (“cathepsins labeled” for short) on cathepsin X [3] is “labeled cathepsin X and S to similar extents and with similar potency”.
`CC[N+]1=C(/C=C/C=C/C=C2/N(CCCCCC(=O)NCCCC[C@H](NC(=O)OCc3ccccc3)C(=O)C=S(C)(C)=O)c3ccc(S(=O)(=O)O)cc3C2(C)C)C(C)(C)c2cc(S(=O)(=O)[O-])ccc21` [Cbz-Lys(sCy5)-SY]: the “potency and specificity of labeling” value at cathepsin X [2] is “broader reactivity”. Further, the “cathepsins labeled” value at cathepsin X [3] is “preference for cathepsin S”. Further, the “specificity of labeling in RAW264.7 lysates” value on cathepsin X [1] (setting [8]) is “loss of specificity, favoring cathepsin S over X and B”. Further, at cathepsin X [4], the “cross-reactivity with cathepsin B and L in live MDA-MB-231 HM cells” value was “the most cross-reactivity with cathepsin B and L”.
Turning to `CC[N+]1=C(/C=C/C=C/C=C2/N(CCCCCC(=O)N[C@@H](Cc3c[nH]c4ccccc34)C(=O)C=S(C)(C)=O)c3ccc(S(=O)(=O)O)cc3C2(C)C)C(C)(C)c2cc(S(=O)(=O)[O-])ccc21` [sCy5-Trp-SY], on cathepsin X [3], the “cathepsins labeled” value was “labeled cathepsin X and S to similar extents and with similar potency”.
`CC(C)[C@H](NC(=O)OC(C)(C)C)C(=O)C=S(C)(C)=O` [Boc-Val-SY, tert-butyl (S)-(1-(dimethyl(oxo)-λ^6-sulfanylidene)-4-methyl-2-oxopentan-3-yl)carbamate]: the “reduction in cathepsin X” value on cathepsin X [5] stood at 71%. The “reduction in cathepsin S” value at cathepsin S is listed as 51%.
`CC[N+]1=C(/C=C/C=C/C=C2\N(CCCCCC(=O)NCCCC[C@H](NC(=O)[C@H](Cc3ccccc3)NC(=O)OCc3ccccc3)C(=O)COc3c(F)c(F)c(C(=O)NCCNC(=O)C4CCN(S(=O)(=O)c5ccccc5-c5c6ccc(N7CCc8cc(S(=O)(=O)[O-])ccc87)cc6[o+]c6cc(N7CCc8cc(S(=O)(=O)O)ccc87)ccc56)CC4)c(F)c3F)c3ccc(S(=O)(=O)O)cc3C2(C)C)C(C)(C)c2cc(S(=O)(=O)[O-])ccc21` [BMV109, reference compound]: the “labeling of cathepsin S, B and L in tissues after in vivo administration” value on cathepsin X [6] is “strongly labels cathepsin B and L”. In addition, at cathepsin X [7], the “labeling in splenic lysates from wildtype mice” value is “strongly labeled cathepsin B and to a lesser extent, cathepsin S and L”.
For `CC[N+]1=C(/C=C/C=C/C=C2/N(CCCCCC(=O)N[C@@H](CC(C)C)C(=O)C=S(C)(C)=O)c3ccc(S(=O)(=O)O)cc3C2(C)C)C(C)(C)c2cc(S(=O)(=O)[O-])ccc21` [sCy5-Leu-SY], on cathepsin X [2], the “potency and specificity of labeling” value was “the most potency and specificity for cathepsin X”. Besides, the “cathepsins labeled” value on cathepsin X [3] was “labeled cathepsin X and S to similar extents and with similar potency”.
Turning to `CCCC[C@H](NC(=O)CCCCN1/C(=C/C=C/C=C/C2=[N+](CC)c3ccc(S(=O)(=O)[O-])cc3C2(C)C)C(C)(C)c2cc(S(=O)(=O)O)ccc21)C(=O)COC(=O)c1c(C)cccc1C` [sCy5-Nle-AOMK], the “labeling of cathepsin S, B and L in tissues after in vivo administration” value at cathepsin X [6] was “Only weak labeling of cathepsin B and S was observed in the colon, but not in other tissues examined”.
For the molecule `CC[N+]1=C(/C=C/C=C/C=C2/N(CCCCCC(=O)N[C@@H](Cc3ccccc3)C(=O)N[C@H](C(=O)C=S(C)(C)=O)C(C)C)c3ccc(S(=O)(=O)O)cc3C2(C)C)C(C)(C)c2cc(S(=O)(=O)[O-])ccc21` [sCy5-Phe-Val-SY], the “potency and specificity of labeling” value on cathepsin X [2] is reported as “broader reactivity”. Also, on cathepsin X [3], the “cathepsins labeled” value is “labeled cathepsin B and L in addition to cathepsin X and S”. At cathepsin X [1] (setting [8]), the “potency of labeling in RAW264.7 lysates” value was “improved potencies for cathepsin X and S compared to BMV109”; the “specificity of labeling in RAW264.7 lysates” value is “loss of specificity”. In addition, on cathepsin X [4], the “cross-reactivity with cathepsin B and L in live MDA-MB-231 HM cells” value is “the most cross-reactivity with cathepsin B and L”.
